Data reported in ChEMBL document CHEMBL1201862, “PubChem BioAssay data set” (2004).
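Exposure lasted 48 hours, with cells grown in 96-well plates and compounds tested at five concentrations. Here, GI50 denotes the concentration required for 50% inhibition of growth.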 Activity calls are given as the source filed them. Rule as the data show it: active = GI50 up to about 1.1 µM and inactive = higher.

Columns and labels:
Experiment in all cases: NCI anticancer screen, dose series, 48 h
786-0 = test system: 786-0
A498 = test system: A498
A549 = test system: A549
ACHN = test system: ACHN
BT-549 = test system: BT-549
CAKI-1 = test system: CAKI-1
CCRF-CEM = test system: CCRF-CEM
COLO 205 = test system: COLO 205
DU-145 = test system: DU-145
EKVX = test system: EKVX
HCC 2998 = test system: HCC 2998
HCT-116 = test system: HCT-116
HCT-15 = test system: HCT-15
HL-60 = test system: HL-60
HOP-62 = test system: HOP-62
HOP-92 = test system: HOP-92
HT-29 = test system: HT-29
Hs-578T = test system: Hs-578T
IGROV-1 = test system: IGROV-1
K562 = test system: K562
KM12 = test system: KM12
LOX IMVI = test system: LOX IMVI
M14 = test system: M14
MCF7 = test system: MCF7
MDA-MB-231 = test system: MDA-MB-231
MDA-MB-435 = test system: MDA-MB-435
MDA-N = test system: MDA-N
MOLT-4 = test system: MOLT-4
Malme-3M = test system: Malme-3M
NCI-H226 = test system: NCI-H226
NCI-H23 = test system: NCI-H23
NCI-H460 = test system: NCI-H460
NCI-H522 = test system: NCI-H522
NCI/ADR-RES = test system: NCI/ADR-RES
OVCAR-3 = test system: OVCAR-3
OVCAR-4 = test system: OVCAR-4
OVCAR-5 = test system: OVCAR-5
OVCAR-8 = test system: OVCAR-8
PC-3 = test system: PC-3
RPMI-8226 = test system: RPMI-8226
RXF 393 = test system: RXF 393
SF-268 = test system: SF-268
SF-295 = test system: SF-295
SF-539 = test system: SF-539
SK-MEL-28 = test system: SK-MEL-28
SK-MEL-2 = test system: SK-MEL-2
SK-MEL-5 = test system: SK-MEL-5
SK-OV-3 = test system: SK-OV-3
SN12C = test system: SN12C
SNB-19 = test system: SNB-19
SNB-75 = test system: SNB-75
SR = test system: SR
SW-620 = test system: SW-620
T47D = test system: T47D
TK-10 = test system: TK-10
U-251 = test system: U-251
UACC-257 = test system: UACC-257
UACC-62 = test system: UACC-62
UO-31 = test system: UO-31
DLD-1 = test system: DLD-1
DMS-114 = test system: DMS-114
DMS-273 = test system: DMS-273
KM-20L2 = test system: KM-20L2
LXFL 529 = test system: LXFL 529
M19-MEL = test system: M19-MEL
XF498 = test system: XF498

In the case of `Cc1cc(N(CCC#N)CCC#N)ccc1/C=C1\SC(=S)NC1=O`, the GI50 (786-0) is reported as 74.6 µM (inactive), the GI50 (A498) is reported as 49.8 µM (inactive) and the GI50 (A549) is reported as 62.4 µM (inactive). For the same molecule, the GI50 (ACHN) was > 100 µM (inactive), the GI50 (BT-549) was 37.2 µM (inactive) and the GI50 (CAKI-1) was 41.4 µM (inactive). For the same molecule, the GI50 (CCRF-CEM) was 25.9 µM (inactive), the GI50 (COLO 205) was > 100 µM (inactive) and the GI50 (DU-145) was > 100 µM (inactive). For the same molecule, the GI50 (EKVX) was 51.3 µM (inactive), the GI50 (HCC 2998) was > 100 µM (inactive) and the GI50 (HCT-116) was 54.2 µM (inactive). For the same molecule, the GI50 (HCT-15) was > 100 µM, the GI50 (HL-60) was 32.5 µM (inactive) and the GI50 (HOP-62) was 22.7 µM (inactive). For the same molecule, the GI50 (HOP-92) was 36.4 µM (inactive), the GI50 (HT-29) was > 100 µM (inactive) and the GI50 (Hs-578T) was 14.2 µM (inactive). For the same molecule, the GI50 (IGROV-1) was 65.3 µM (inactive), the GI50 (K562) was 40 µM (inactive) and the GI50 (KM12) was 62.2 µM (inactive). The GI50 (LOX IMVI) was > 100 µM (inactive), the GI50 (M14) was 40.3 µM (inactive) and the GI50 (MCF7) was 54.2 µM (inactive). For the same molecule, the GI50 (MDA-MB-231) was > 100 µM (inactive), the GI50 (MDA-MB-435) was 82.2 µM (inactive) and the GI50 (MDA-N) was > 100 µM (inactive). For the same molecule, the GI50 (MOLT-4) was 91 µM (inactive), the GI50 (Malme-3M) was 52.1 µM (inactive) and the GI50 (NCI-H226) was > 100 µM (inactive). The GI50 (NCI-H23) was > 100 µM (inactive), the GI50 (NCI-H460) was 30.3 µM (inactive) and the GI50 (NCI-H522) was 19.4 µM (inactive). The GI50 (NCI/ADR-RES) was > 100 µM (inactive), the GI50 (OVCAR-3) was 51.3 µM (inactive) and the GI50 (OVCAR-4) was > 100 µM (inactive). The GI50 (OVCAR-5) was 34.9 µM (inactive), the GI50 (OVCAR-8) was 49.3 µM (inactive) and the GI50 (PC-3) was 36.8 µM (inactive). For the same molecule, the GI50 (RPMI-8226) was 17.2 µM (inactive), the GI50 (RXF 393) was 19.8 µM (inactive) and the GI50 (SF-268) was 23.6 µM (inactive). The GI50 (SF-295) was 17.5 µM (inactive), the GI50 (SF-539) was 69.5 µM (inactive) and the GI50 (SK-MEL-28) was > 100 µM (inactive). For the same molecule, the GI50 (SK-MEL-2) was > 100 µM (inactive), the GI50 (SK-MEL-5) was > 100 µM (inactive) and the GI50 (SK-OV-3) was 21.5 µM (inactive). The GI50 (SN12C) was > 100 µM (inactive), the GI50 (SNB-19) was > 100 µM (inactive) and the GI50 (SNB-75) was 11.6 µM (inactive). For the same molecule, the GI50 (SR) was 22 µM (inactive), the GI50 (SW-620) was > 100 µM (inactive) and the GI50 (T47D) was 66.7 µM (inactive). For the same molecule, the GI50 (TK-10) was > 100 µM (inactive), the GI50 (U-251) was 42.5 µM (inactive) and the GI50 (UACC-257) was > 100 µM (inactive). The GI50 (UACC-62) was 48.6 µM (inactive) and the GI50 (UO-31) was 99.8 µM (inactive).

With `O=c1nc2n(c3nsnc13)CCO2` the GI50 (786-0) was > 100 µM (inactive), the GI50 (A549) was > 100 µM (inactive) and the GI50 (ACHN) was > 100 µM (inactive). The GI50 (CAKI-1) was > 100 µM (inactive), the GI50 (CCRF-CEM) was > 100 µM (inactive) and the GI50 (COLO 205) was > 100 µM (inactive). For the same molecule, the GI50 (DLD-1) was > 100 µM (inactive), the GI50 (DMS-114) was 36.6 µM (inactive) and the GI50 (DMS-273) was > 100 µM (inactive). The GI50 (EKVX) was > 100 µM (inactive), the GI50 (HCC 2998) was > 100 µM (inactive) and the GI50 (HCT-116) was 29.8 µM (inactive). For the same molecule, the GI50 (HCT-15) was > 100 µM, the GI50 (HL-60) was > 100 µM (inactive) and the GI50 (HOP-62) was > 100 µM (inactive). For the same molecule, the GI50 (HOP-92) was > 100 µM (inactive), the GI50 (HT-29) was > 100 µM (inactive) and the GI50 (IGROV-1) was > 100 µM (inactive). The GI50 (K562) was > 100 µM (inactive), the GI50 (KM-20L2) was > 100 µM (inactive) and the GI50 (KM12) was > 100 µM (inactive). The GI50 (LOX IMVI) was > 100 µM (inactive), the GI50 (LXFL 529) was > 100 µM (inactive) and the GI50 (M14) was > 100 µM (inactive). The GI50 (M19-MEL) was > 100 µM (inactive), the GI50 (MOLT-4) was > 100 µM (inactive) and the GI50 (Malme-3M) was > 100 µM (inactive). The GI50 (NCI-H226) was > 100 µM (inactive), the GI50 (NCI-H23) was > 100 µM (inactive) and the GI50 (NCI-H460) was > 100 µM (inactive). For the same molecule, the GI50 (NCI-H522) was > 100 µM (inactive), the GI50 (OVCAR-3) was > 100 µM (inactive) and the GI50 (OVCAR-5) was > 100 µM (inactive). The GI50 (OVCAR-8) was > 100 µM (inactive), the GI50 (RPMI-8226) was > 100 µM (inactive) and the GI50 (RXF 393) was > 100 µM (inactive). The GI50 (SF-268) was > 100 µM (inactive), the GI50 (SF-539) was > 100 µM (inactive) and the GI50 (SK-MEL-28) was > 100 µM (inactive). The GI50 (SK-MEL-2) was > 100 µM (inactive), the GI50 (SK-MEL-5) was > 100 µM (inactive) and the GI50 (SK-OV-3) was > 100 µM (inactive). For the same molecule, the GI50 (SN12C) was > 100 µM (inactive), the GI50 (SNB-19) was > 100 µM (inactive) and the GI50 (SNB-75) was > 100 µM (inactive). For the same molecule, the GI50 (SR) was > 100 µM (inactive), the GI50 (SW-620) was > 100 µM (inactive) and the GI50 (TK-10) was > 100 µM (inactive). For the same molecule, the GI50 (U-251) was > 100 µM (inactive), the GI50 (UACC-257) was > 100 µM (inactive) and the GI50 (UACC-62) was > 100 µM (inactive). The GI50 (UO-31) was > 100 µM (inactive) and the GI50 (XF498) was > 100 µM (inactive).

`COc1cc(C2c3cc4c(cc3[C@@H](NCCN(C)C)C3COC(=O)[C@H]23)OCO4)cc(OC)c1O` (some centres not stated) was tested, and the GI50 (A549) was 0.0207 µM (active), the GI50 (DLD-1) was 1.46 µM (inactive) and the GI50 (HL-60) was 0.0127 µM (active). For the same molecule, the GI50 (HOP-92) was 0.0303 µM (active), the GI50 (K562) was 0.407 µM (active) and the GI50 (KM12) was 0.931 µM (active). For the same molecule, the GI50 (LXFL 529) was 1.82 µM (inactive), the GI50 (M14) was 0.255 µM (active) and the GI50 (M19-MEL) was 0.91 µM (active). The GI50 (Malme-3M) was 0.36 µM (active), the GI50 (NCI-H226) was 0.0156 µM (active) and the GI50 (NCI-H460) was < 0.01 µM (active). For the same molecule, the GI50 (OVCAR-3) was 1.34 µM (inactive), the GI50 (OVCAR-4) was 3.09 µM (inactive) and the GI50 (RPMI-8226) was 0.29 µM (active). The GI50 (SF-539) was 0.0585 µM (active), the GI50 (SK-MEL-28) was 0.309 µM (active) and the GI50 (SK-MEL-5) was 0.133 µM (active). For the same molecule, the GI50 (SNB-19) was 0.598 µM (active), the GI50 (SNB-75) was 0.13 µM (active) and the GI50 (SW-620) was 0.296 µM (active). The GI50 (TK-10) was 1.69 µM (inactive), the GI50 (U-251) was 0.0687 µM (active) and the GI50 (UO-31) was 0.284 µM (active). For the same molecule, the GI50 (XF498) was 0.2 µM (active).

For `NC(=O)c1cn(C2OC(CO)C(O)C2O)c2ncnc(N)c12` (configuration not stated), the GI50 (DMS-273) was 0.0381 µM (active), the GI50 (IGROV-1) was 0.0885 µM (active) and the GI50 (MCF7) was 0.0902 µM (active). For the same molecule, the GI50 (OVCAR-8) was 0.139 µM (active) and the GI50 (SNB-75) was 0.0422 µM (active).
